Laboratory results as given in US20170190671A1, “BIS(ARYL)CATECHOL DERIVATIVES AS HERBICIDES” (E I DU PONT DE NEMOURS AND COMPANY, priority 2014, published 2017).

What was measured:
Format in all cases: in vivo
[1] = tested on: ragweed (common ragweed, Ambrosia elatior); test: Test A preemergence; conditions: Ambrosia artemisiifolia, pre-emergence, 240 h
In short: (§1)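 Compounds in non-phytotoxic solvent with surfactant applied as soil spray preemergence, or postemergence to plants 2-10 cm at one- to two-leaf stage, in loam/sand. After approximately 10 days in greenhouse, injury rated visually versus untreated controls, 0 (no effect) to 100 (complete control).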

[2] = tested on: giant foxtail (Setaria faberii); test: Test A preemergence; conditions: Setaria faberi, pre-emergence, 240 h
In short: as §1

kochia (Kochia scoparia) [3] = test: Test A preemergence; conditions: Bassia scoparia, pre-emergence, 240 h
In short: as §1

[4] = tested on: pigweed (Amaranthus retroflexus); test: Test A preemergence; conditions: Amaranthus retroflexus, pre-emergence, 240 h
In short: as §1

[5] = tested on: barnyardgrass (Echinochloa crus-galli); test: Test A preemergence; conditions: Echinochloa crus-galli, pre-emergence, 240 h
In short: as §1

[6] = tested on: Italian ryegrass (Lolium multiflorum); test: Test A preemergence; conditions: Lolium multiflorum, pre-emergence, 240 h
In short: as §1

[7] = tested on: lambsquarters (Chenopodium album); test: Test C preemergence; conditions: Chenopodium album, pre-emergence, 336 h, scale 0 to 100, read-out: Plant response rating, Lambsquarters
In short: (§2)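 After preemergence treatment of seeds in loam-sand soil or foliar treatment at the 1- to 4-leaf stage of plants in peat/vermiculite medium, pots were kept 13-15 days in the greenhouse. Each was then scored visually, 0 meaning no effect and 100 complete control.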

[8] = tested on: yellow nutsedge (Cyperus esculentus); test: Test C preemergence; conditions: Cyperus, pre-emergence, 336 h, scale 0 to 100, read-out: Plant response rating, Nutsedge, Yellow
In short: as §2

[9] = tested on: galium (catchweed bedstraw, Galium aparine); test: Test C preemergence; conditions: Galium, pre-emergence, 336 h, scale 0 to 100, read-out: Plant response rating, Galium
In short: as §2

[10] = tested on: sedge, umbrella (small-flower umbrella sedge, Cyperus difformis); test: Test B flooded paddy; conditions: Cyperus difformis, 336 h; 250 g ai/ha, Flood, 13 to 15 days, scale 0 (no effect) to 100 (complete control); read-out: Plant response rating, Sedge, Umbrella
In short: (§3)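 Compound was added to standing water 3 cm above soil, flood maintained, and plants held in a greenhouse before visual scoring against controls at 13 to 15 days.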

rice (Oryza sativa) = test: Test B flooded paddy; conditions: Oryza sativa, 336 h; 250 g ai/ha, Flood, 13 to 15 days, scale 0 (no effect) to 100 (complete control); read-out: Plant response rating, Rice
In short: as §3

[11] = tested on: ducksalad (Heteranthera limosa); test: Test B flooded paddy; conditions: Heteranthera limosa, 336 h; 250 g ai/ha, Flood, 13 to 15 days, scale 0 (no effect) to 100 (complete control); read-out: Plant response rating, Ducksalad
In short: as §3

[12] = tested on: barnyardgrass (Echinochloa crus-galli); test: Test B flooded paddy; conditions: Echinochloa crus-galli, 336 h; 250 g ai/ha, Flood, 13 to 15 days, scale 0 (no effect) to 100 (complete control); read-out: Plant response rating, Barnyardgrass
In short: as §3

[13] = tested on: ragweed (common ragweed, Ambrosia elatior); test: Test A postemergence; conditions: Ambrosia artemisiifolia, post-emergence, 240 h, 0 to 100 scale, read-out: Plant response rating, Ragweed
In short: as §1

[14] = tested on: giant foxtail (Setaria faberii); test: Test A postemergence; conditions: Setaria faberi, post-emergence, 240 h, 0 to 100 scale, read-out: Plant response rating, Foxtail, Giant
In short: as §1

[15] = tested on: wheat (Triticum aestivum); test: Test A postemergence; conditions: Triticum aestivum, post-emergence, 240 h, 0 to 100 scale, read-out: Plant response rating, Wheat
In short: as §1

kochia (Kochia scoparia) [16] = test: Test A postemergence; conditions: Bassia scoparia, post-emergence, 240 h, 0 to 100 scale, read-out: Plant response rating, Kochia
In short: as §1

[17] = tested on: pigweed (Amaranthus retroflexus); test: Test A postemergence; conditions: Amaranthus retroflexus, post-emergence, 240 h, 0 to 100 scale, read-out: Plant response rating, Pigweed
In short: as §1

[18] = tested on: barnyardgrass (Echinochloa crus-galli); test: Test A postemergence; conditions: Echinochloa crus-galli, post-emergence, 240 h, 0 to 100 scale, read-out: Plant response rating, Barnyardgrass
In short: as §1

[19] = tested on: Italian ryegrass (Lolium multiflorum); test: Test A postemergence; conditions: Lolium multiflorum, post-emergence, 240 h, 0 to 100 scale, read-out: Plant response rating, Ryegrass, Italian
In short: as §1

[20] = tested on: blackgrass (Alopecurus myosuroides); test: Test A postemergence; conditions: Alopecurus myosuroides, post-emergence, 240 h, 0 to 100 scale, read-out: Plant response rating, Blackgrass
In short: as §1

corn (Zea mays) = test: Test A postemergence; conditions: Zea mays, post-emergence, 240 h, 0 to 100 scale
In short: as §1

[21] = tested on: galium (catchweed bedstraw, Galium aparine); test: Test A postemergence; conditions: Galium, post-emergence, 240 h, 0 to 100 scale, read-out: Plant response rating, Galium
In short: as §1

SMILES: Fc1cccc(Oc2ncc(Cl)cn2)c1Oc1ncc(C(F)(F)F)cn1 [Compound 43, 5-chloro-2-[5-fluoro-6-[[5-(trifluoromethyl)-2-pyrimidinyl]oxy]phenoxy]pyrimidine]
- pest or weed control at 125 g/ha ([1]; 125 g ai/ha, 0 to 100 scale (0 no effect, 100 complete control), read-out: Ragweed plant response rating): 70%
- pest or weed control at 500 g/ha ([1]; 500 g ai/ha, 0 to 100 scale, read-out: Plant response rating, Ragweed): 100%
- pest or weed control at 125 g/ha ([2]; 125 g ai/ha, 0 to 100 scale (0 no effect, 100 complete control), read-out: Foxtail, Giant plant response rating): 100%
- pest or weed control at 500 g/ha ([2]; 500 g ai/ha, 0 to 100 scale, read-out: Plant response rating, Foxtail, Giant): 100%
- pest or weed control at 125 g/ha (kochia (Kochia scoparia) [3]; 125 g ai/ha, 0 to 100 scale (0 no effect, 100 complete control), read-out: Kochia plant response rating): 100%
- pest or weed control at 500 g/ha (kochia (Kochia scoparia) [3]; 500 g ai/ha, 0 to 100 scale, read-out: Plant response rating, Kochia): 100%
- pest or weed control at 125 g/ha ([4]; 125 g ai/ha, 0 to 100 scale (0 no effect, 100 complete control), read-out: Pigweed plant response rating): 100%
- pest or weed control at 500 g/ha ([4]; 500 g ai/ha, 0 to 100 scale, read-out: Plant response rating, Pigweed): 100%
- pest or weed control at 125 g/ha ([5]; 125 g ai/ha, 0 to 100 scale (0 no effect, 100 complete control), read-out: Barnyardgrass plant response rating): 100%
- pest or weed control at 500 g/ha ([5]; 500 g ai/ha, 0 to 100 scale, read-out: Plant response rating, Barnyardgrass): 100%
- pest or weed control at 125 g/ha ([6]; 125 g ai/ha, 0 to 100 scale (0 no effect, 100 complete control), read-out: Ryegrass, Italian plant response rating): 50%
- pest or weed control at 500 g/ha ([6]; 500 g ai/ha, 0 to 100 scale, read-out: Plant response rating, Ryegrass, Italian): 100%
- pest or weed control at 31 g/ha ([7]; 31 g ai/ha, preemergence): 100%
- pest or weed control at 62 g/ha ([7]; 62 g ai/ha, preemergence): 100%
- pest or weed control at 125 g/ha ([7]; 125 g ai/ha, preemergence): 100%
- pest or weed control at 16 g/ha ([7]; Preemergence, 16 g ai/ha): 100%
- pest or weed control at 31 g/ha ([8]; 31 g ai/ha, preemergence): 0%
- pest or weed control at 62 g/ha ([8]; 62 g ai/ha, preemergence): 35%
- pest or weed control at 125 g/ha ([8]; 125 g ai/ha, preemergence): 60%
- pest or weed control at 16 g/ha ([8]; Preemergence, 16 g ai/ha): 100%
- pest or weed control at 31 g/ha ([9]; 31 g ai/ha, preemergence): 95%
- pest or weed control at 62 g/ha ([9]; 62 g ai/ha, preemergence): 100%
- pest or weed control at 125 g/ha ([9]; 125 g ai/ha, preemergence): 100%
- pest or weed control at 16 g/ha ([9]; Preemergence, 16 g ai/ha): 95%
- pest or weed control at 250 g/ha [10]: 90%
- plant injury at 250 g/ha (rice (Oryza sativa)): 60%
- pest or weed control at 250 g/ha [11]: 100%
- pest or weed control at 250 g/ha [12]: 85%
- pest or weed control at 125 g/ha ([13]; 125 g ai/ha): 70%
- pest or weed control at 500 g/ha ([13]; 500 g ai/ha): 100%
- pest or weed control at 125 g/ha ([14]; 125 g ai/ha): 90%
- pest or weed control at 500 g/ha ([14]; 500 g ai/ha): 100%
- plant injury at 125 g/ha ([15]; 125 g ai/ha): 80%
- plant injury at 500 g/ha ([15]; 500 g ai/ha): 100%
- pest or weed control at 125 g/ha (kochia (Kochia scoparia) [16]; 125 g ai/ha): 100%
- pest or weed control at 500 g/ha (kochia (Kochia scoparia) [16]; 500 g ai/ha): 100%
- pest or weed control at 125 g/ha ([17]; 125 g ai/ha): 100%
- pest or weed control at 500 g/ha ([17]; 500 g ai/ha): 100%
- pest or weed control at 125 g/ha ([18]; 125 g ai/ha): 90%
- pest or weed control at 500 g/ha ([18]; 500 g ai/ha): 100%
- pest or weed control at 125 g/ha ([19]; 125 g ai/ha): 80%
- pest or weed control at 500 g/ha ([19]; 500 g ai/ha): 100%
- pest or weed control at 125 g/ha ([20]; 125 g ai/ha): 90%
- pest or weed control at 500 g/ha ([20]; 500 g ai/ha): 100%
- Corn plant response rating (crop injury, 0 = no effect, 100 = complete kill) at 125 g/ha (corn (Zea mays); 125 g ai/ha): 70%
- Corn plant response rating (crop injury, 0 = no effect, 100 = complete kill) at 500 g/ha (corn (Zea mays); 500 g ai/ha): 100%
- pest or weed control at 125 g/ha ([21]; 125 g ai/ha): 100%
- pest or weed control at 500 g/ha ([21]; 500 g ai/ha): 100%
